Data as given in patent US10485795B2, “FXR (NR1H4) binding and activity modulating compounds” (Gilead Sciences, Inc., priority 2011, dated 2019).
≈ marks a conversion by molar mass, not a printed value.

What was measured:
[1] = Aqueous solubility assay; type: physicochemical; settings: PBS buffer, kinetic from dmso stock, pH 7.4, theoretical final concentration of 200 μM
Procedure: The aq. solubility in PBS, pH 7.4 was determined as follows. A 10 mM compound stock solution in DMSO was added to PBS (pH 7.4) to reach a theoretical final concentration of 200 μM. The resulting solution/suspension was shaken at 1250 rpm for 1 h and then stored in the dark at rt for 23 h. At this time any precipitate is separated from the solution by centrifugation at 3900 rpm for 30 min. The aq. solubility was determined by comparing the peak area of the principle peak in a calibration standard (200 μM) in an organic solvent (methanol/water 60:40, v/v) with the peak area of the corresponding peak in the buffer sample. As detection method was used HPLC-UV/VIS at 230 nm.

[2] = Parallel Artificial Membrane Permeation Assay (PAMPA); type: in vitro ADME; settings: Flux (%) = (c acceptor well) / sum (c donor well + c acceptor well) × 100 × 2; PBS pH 7.4, 15-16 h at rt
Procedure: For the PAMPA, 5 mM stock solutions of test items were prepared in DMSO. 5 mM stock solutions of reference items were prepared in EtOH (carbamazepine, guanabenz) or in EtOH:H2O 1:1 (v/v) (ceftriaxone), respectively. Compounds were diluted in PBS (pH 7.4) to obtain the starting solutions containing 5% of the respective organic solvent and 250 μM reference compounds or 10 μM test items, respectively. For the assay, a modified procedure of the PAMPA as described by Kansy et al. Kansy et al. (J. Med. Chem. 1998, 41, 1007) was used. The reference compounds for low (ceftriaxone), medium (guanabenz) and high permeation (carbamazepine) were included as internal controls.
Permeation experiments were carried out in a Multiscreen 96 well tray (donor) covered by a 96-well Multiscreen Immobilon (acceptor). The hydrophobic filter material of the Immobilon plate was pre-wetted with 70% ethanol and treated with a solution of lipids (lecithin dissolved in dodecane). The donor plate was filled with test compounds and reference compounds and both plates were inserted into each other and placed onto an orbital shaker for 15 min at 100 rpm. The transport study was started by applying 150 μL PBS-buffer containing the test and reference compounds to the donor plate. After 15-16 h of diffusion at rt, the contents of the acceptor and donor plate were collected and quantified using LC/MS-detection (test items) or by UV spectroscopy using a Spectramax Plus^384 (Molecular Devices) (reference items). The absorption maxima for the reference items ceftriaxone, guanabenz and carbamazepine were 240 nm, 270 nm and 286 nm, respectively. Recovery samples were prepared as described for the permeation assay samples and were incubated in representative vials during the permeation period under the same conditions.
For LC/MS analysis of the test items, 100 μL incubate were removed from acceptor and donor compartment and processed for acetonitrile (ACN) precipitation as described below. Additionally, test item samples from the lipid layer were extracted by flushing each well two times with 150 μL EA. The solutions were collected in 1.5 mL reaction tubes and the solvent was evaporated. The dried residues were resuspended in a PBS/DMSO/ACN mixture reflecting the composition of the acceptor and donor samples (i.e. 100 μL buffer supplemented with 5% DMSO, 200 μL ACN+ISTD). The final solvent content of each sample was 66% ACN.
Samples from donor and acceptor compartments and calibration standards were precipitated by addition of 200 μL ACN/ISTD or 400 μL ACN/ISTD, respectively. After vigorous shaking (10 seconds) and centrifugation (5 min at 4800×g, rt), the particle free supernatants were subjected to LC-MS/MS. Membrane compartments were extracted as described above. […]

Row | SMILES | solubility at 24 h [1] | PAMPA, Membrane permeability in % Flux [2]
1 | O=C(O)c1cccc(N2CC(O)(c3ccc(OCc4c(-c5c(Cl)cccc5Cl)noc4C4CC4)cc3Cl)C2)c1 | 195 µM (≈ 114 µg/mL) | 
2 | O=C(O)c1cccc(C2CC2c2ccc(OCc3c(-c4c(Cl)cccc4Cl)noc3C3CC3)cc2Cl)c1 (stereo not drawn) [reference compound] | 20 µM (≈ 11.1 µg/mL) | 13.6 % Flux

The next lines start with the values.

Row | solubility at 24 h [1] | PAMPA, Membrane permeability in % Flux [2] | SMILES
3 | 192 µM (≈ 112 µg/mL) | 21.1 % Flux | O=C(O)c1ccc(C2CC(O)(c3ccc(OCc4c(-c5c(Cl)cccc5Cl)noc4C4CC4)cc3Cl)C2)cc1 (stereo not drawn)
4 | 192 µM (≈ 112 µg/mL) | 24.0 % Flux | O=C(O)c1cccc([C@H]2C[C@](O)(c3ccc(OCc4c(-c5c(Cl)cccc5Cl)noc4C4CC4)cc3Cl)C2)c1 [drawing 47]
5 | 72 µM (≈ 39.9 µg/mL) | 20.7 % Flux | O=C(O)c1ccc(C2CC2c2ccc(OCc3c(-c4c(Cl)cccc4Cl)noc3C3CC3)cc2Cl)cc1 (stereo not drawn) [reference compound]
